Entries after “also recorded” stand apart in the source; their conditions may differ.
How the values were obtained:
Aβ1-40 [1] = target: T1, Aβ1-40 (Homo sapiens, UniProt P05067); experiment: ThT fluorescence assay, inhibition of Aβ1-40 aggregation; type: biochemical
T1 construct: Both Aβ1-40 and Aβ1-42 were purchased from Anaspec; purchased Anaspec
Protocol: The compounds of the invention were evaluated for activity against Aβ aggregation in a kinetic thioflavin T (ThT) fluorescence assay similar to that of Chalifour, R. J., et al., J. Biol. Chem. (2003) 278: 34874-81. IC50 values for inhibition of Aβ1-40 aggregation in the ThT fluorescence assay for a number compounds of the present invention were determined. Values were calculated by solving the equation y=(m2)/(1+(x/m3)^m4) where y is percent aggregation, x is compound concentration, and m3 is the concentration giving 50% aggregation (i.e. IC50), using KaleidaGraph 4.0 (Synergy Software). Dye-binding ThT/ThS protein aggregation assays for Aβ, tau and α-synuclein were performed as described in Example 8 of US2007/0015813.

Aβ1-42 [2] = target: T2, Aβ1-42 (Homo sapiens, UniProt P05067); experiment: TEM of Aβ1-42 fibrils; type: biochemical; settings: Aβ1-42 20 μM, absence of ThT, FIG. 13
T2 construct: Both Aβ1-40 and Aβ1-42 were purchased from Anaspec; purchased Anaspec
T2 sequence (P05067 672-713 limits assumed): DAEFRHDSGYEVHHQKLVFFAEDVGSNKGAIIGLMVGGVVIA
Protocol: (§1) A modified version of the procedure of Cohen et al. (Biochemistry 2006, 45: 4727-35) was followed for TEM analysis. Uranylacetate was used as negative stain (Electron Microscopy Sciences) and was made as a 3% solution and stored at 5° C. in the dark to reduce photodecay. Aspirated samples from ThT (Aβ1-40) and ThS (Tau 441) aggregation assays, or Aβ1-42 incubated (37° C.) for 30 min. in the presence and absence of compounds were used in the TEM analyses. Samples were carefully loaded on Formvar-coated 400 mesh copper grids (Electron Microscopy Sciences) as a 10 μL drop. After sitting for 60 seconds, excess fluid was gently dabbed off with filter paper. Next, the 3% uranylacetate was added as a drop onto the grid and left to stand for another 60 seconds. The excess fluid was again dabbed off by filter paper. Samples were left to dry for at least 30 minutes prior to being viewed on an electron microscope operating at 80 kV.

Aβ1-40 [3] = target: T1, Aβ1-40; experiment: TEM of Aβ1-40 fibrils; type: biochemical; settings: Aβ1-40 20 μM
Protocol: as §1

α-synuclein = α-synuclein (Homo sapiens, UniProt P37840); experiment: ThT fluorescence assay, α-synuclein aggregation; type: biochemical; settings: α-synuclein 4 μM; compound 100 μM and 20 μM; 96 hours, 37° C., FIG. 16
Protocol: The following procedures were used. The compounds were examined by circular dichroism (CD) to confirm their anti-amyloidogenic activity and were further evaluated for inhibition of both tau and α-synuclein aggregation in Thioflavin S (ThS) and ThT dye-binding fluorescence assays, respectively. The compounds were also evaluated in a MTT [3-(4,5-dimethylthiazol-2-yl)-2,5-diphenyltetrazolium bromide] cell viability assay (Kaneko, I., et al., J. Neurochem. (1995) 65: 2585-93). Pharmacokinetic (PK) testing was also performed. Compounds administered to mice (IP or PO dosing) had no toxicity at doses up to 300 mg/kg and were present in brain more than four hours after administration.
Dye-binding ThT/ThS protein aggregation assays for Aβ, tau and α-synuclein were performed as described in Example 8 of US2007/0015813.

[4] = system: APP/PS1 transgenic mice hippocampal slices; experiment: LTP electrophysiology in hippocampal slices; type: cell-based; settings: 50 μM, FIG. 18
Protocol: Electrophysiological analysis was performed on males (see detailed description in Gong, B., el al., Cell (2006) 126: 775-88). Hippocampal slices (400 μm) were cut with a tissue chopper and maintained in an interface chamber at 29° C. for 90 min prior to recording. Briefly. CA1 fEPSPs were recorded by placing both the stimulating and the recording electrodes in CA1 stratum radiatum. Basal synaptic transmission was assayed by plotting the stimulus voltages against slopes of fEPSP. For LTP experiments, a 15 min baseline was recorded every min at an intensity that evokes a response ˜35% of the maximum evoked response. LTP was induced using θ-burst stimulation (4 pulses at 100 Hz, with the bursts repeated at 5 Hz and each tetanus including 3 ten-burst trains separated by 15 sec).

Aβ1-42 [5] = target: T2, Aβ1-42; experiment: Tris-tricine SDS-PAGE, Aβ1-42 self-assembly; type: biochemical; settings: versus control, FIG. 8
Protocol: Pre-cast polyacrylamide gels were purchased from NuSep (10-20% Tris-tricine-SDS). These were chosen for their large separation range of 2.5 to 205 kDa. Molecular weight markers were purchased from Sigma Aldrich and diluted twenty fold for individual use. Three buffers were used for this technique: 1) Sample buffer (1.25 mL 0.5 M Tris-HCl (pH 6.8), 2.5 mL glycerol, 2.0 mL 10% SDS, 0.2 mL 0.5% bromophenol blue, 3.55 mL distilled water) which was used as the leading band in the gel. 2) Cathode Buffer (12.11 g tris base, 17.92 g tricine, 1 g SDS, diluted to 1 L with distilled water) which was the inner buffer in the tank assembly. 3) Anode Buffer (5× concentrated: 121.1 g tris base in 1 L of distilled water, pH 8.9 adjusted with concentrated HCl) which was the outer buffer and loaded at 1× concentration. Both Aβ1-40 and Aβ1-42 were purchased from Anaspec.
Five solutions were required to stain the gels using the silver stain protocol: 1) Fixer 1 (40% methanol, 10% acetic acid, diluted to 1 L with Millie-Q water) 2) Fixer 2 (45 g anhydrous sodium acetate, 300 mL methanol, 5 mL 25% glutaraldehyde, diluted to 1 L with Millie-Q water), 3) a) Silver stain A (15 mL of 25% ammonia solution, 0.8 g sodium hydroxide, diluted to 950 mL with Millie Q water). b) Silver stain B (6 g of silver nitrate in 50 mL Millie Q water). […]

T1 sequence (P05067 672-711 limits assumed): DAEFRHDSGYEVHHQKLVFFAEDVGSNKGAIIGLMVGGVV

## COc1ccc2[nH]cc(-c3c[nH]c4ccc(N)cc34)c2c1 [QR-0185]
Aβ1-40 [1]
  IC50: 12.5 µM
Aβ1-42 [2]; compound 100 μM
  Aβ1-42 fibrils (TEM): decrease in fibrils

## O=C(O)c1ccc2[nH]cc(-c3c(O)c(O)cc4ccccc34)c2c1 [QR-0194]
Aβ1-40 [1]
  IC50: 17.7 µM
Aβ1-40 [3]; compound 20 μM, following ThT aggregation assay, FIG. 11
  Aβ1-40 fibril formation (TEM): increase in fibril formation but of a different morphology
Aβ1-42 [2]; compound 20 μM
  Aβ1-42 fibrils (TEM): apparent increase in the number of fibrils
α-synuclein
  inhibition of α-synuclein aggregation (ThT fluorescence): showed inhibition

## O=C(O)c1ccc2[nH]cc(-c3ccc4cc(O)ccc4c3)c2c1 [QR-0217]
α-synuclein
  inhibition of α-synuclein aggregation (ThT fluorescence): showed inhibition
[4]
  rescue of LTP impairment: significantly rescued impairment of LTP; also recorded: significantly (P=0.022) rescuing impairment of LTP

## O=C(O)c1cccc2c(-c3c(O)c(O)cc4ccccc34)c[nH]c12 [QR-0273]
Aβ1-40 [1]
  IC50: 10.3 µM
Aβ1-42 [5]
  effect on Aβ1-42 self-assembly (SDS-PAGE): increase in the presence of monomer and pentamer as well as the appearance of a dimer
Aβ1-40 [3]; absence of ThT, compound 100 μM, FIG. 12
  Aβ1-40 fibrils (TEM): increase in the number of fibrils
